Results as given in patent publication US6033823A, “Mutated penicillin G acylase genes” (priority 1994, dated 2000).
Positions count from the first letter of the chain named.

Columns and labels:
[1] = target: T1, Alcaligenes faecalis Penicillin G acylase mutant B:L56K (Alcaligenes faecalis, UniProt O34142, L321K); test: Deacylation kinetics and phenylacetic acid product inhibition, mutant B:L56K; type: biochemical; settings: from progress curves of NIPAB deacylation, 25° C., 0.1 M NaH2PO4.H2O buffer pH 7.5, read-out: Ki Phenylacetic acid (inhibition constant, dissociation constant)
T1 construct: alpha 202 aa, beta 551 aa; recombinant, E. coli host
T1 sequence (O34142 27-228): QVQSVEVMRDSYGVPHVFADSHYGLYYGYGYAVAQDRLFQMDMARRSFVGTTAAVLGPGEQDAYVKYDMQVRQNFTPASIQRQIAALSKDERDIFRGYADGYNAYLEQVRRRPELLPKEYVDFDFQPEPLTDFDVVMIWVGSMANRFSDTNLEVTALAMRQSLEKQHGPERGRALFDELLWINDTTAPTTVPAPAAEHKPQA
T1 sequence (O34142 266-816 L321K): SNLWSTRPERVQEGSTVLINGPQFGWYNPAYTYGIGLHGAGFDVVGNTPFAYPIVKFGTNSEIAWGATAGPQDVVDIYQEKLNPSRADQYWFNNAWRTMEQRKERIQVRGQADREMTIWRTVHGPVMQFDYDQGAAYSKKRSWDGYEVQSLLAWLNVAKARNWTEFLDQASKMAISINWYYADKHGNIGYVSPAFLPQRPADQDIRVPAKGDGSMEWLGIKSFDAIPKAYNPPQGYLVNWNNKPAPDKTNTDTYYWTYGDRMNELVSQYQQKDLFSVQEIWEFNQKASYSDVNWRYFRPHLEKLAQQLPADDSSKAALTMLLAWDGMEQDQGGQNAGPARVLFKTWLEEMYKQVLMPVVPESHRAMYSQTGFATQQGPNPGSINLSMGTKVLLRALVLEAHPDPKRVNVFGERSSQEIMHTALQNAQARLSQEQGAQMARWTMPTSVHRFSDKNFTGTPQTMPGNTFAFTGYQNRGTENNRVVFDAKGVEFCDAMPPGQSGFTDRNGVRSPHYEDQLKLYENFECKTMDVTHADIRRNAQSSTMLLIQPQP
Method: In order to determine enzymatic activity the acylases were incubated with substrate at room temperature in buffered solution. In case β-lactamase impurity was expected to be present in the enzyme preparations, 1.0 mM -lactamase inhibitor 6-bromo-penicillanic acid was added to the assay. The reactions were stopped by adding an excess PMSF. For some mutants which were less sensitive to PMSF inhibition, the reactions were stopped by adding 0.5 M HCl or 0.5 M acetic acid until the pH was between 3 and 4. When reactions were subsequently analysed by HPLC, the reactions were stopped by dilution with the correponding elution solvent (see table 1). […]
The composition of the reaction mixtures was determined by high-performanceliquid chromatography (HPLC)(table 1). Concentrations were determined by using standards of known concentration.
In a continuous assay Penicillin G acylase was assayed spectro-fotometrically with the chromogenic substrate NIPAB [6-nitro-3-phenylacetamido-benzoic acid]. The liberation of 3-amino-6-nitrobenzoic acid was monitored by measuring the extinction at 405 nm in a Kontron 610 kinetic spectrofotometer. […]
Initial rate measurements were performed with excess substrate over the enzyme. Catalytic parameters were derived from least-squares fitting of the measured initial rates plotted for various substrate concentrations according to the Michaelis-Menten equation. […]

[2] = target: T2, Alcaligenes faecalis Penicillin G acylase mutant B:I177S (Alcaligenes faecalis, UniProt O34142, I442S); test: NIPAB kinetics and phenylacetic acid product inhibition, mutant B:I177S; type: biochemical; settings: from progress curves of NIPAB deacylation, 25° C., 0.1 M NaH2PO4.H2O buffer pH 7.5, read-out: Ki Phenylacetic acid (inhibition constant, dissociation constant)
T2 construct: alpha 202 aa, beta 551 aa; recombinant, E. coli host
T2 sequence (O34142 27-228): T1 sequence (O34142 27-228)
T2 sequence (O34142 266-816 I442S): T1 sequence (O34142 266-816 L321K) with K56L, I177S
Method: In a continuous assay Penicillin G acylase was assayed spectro-fotometrically with the chromogenic substrate NIPAB [6-nitro-3-phenylacetamido-benzoic acid]. The liberation of 3-amino-6-nitrobenzoic acid was monitored by measuring the extinction at 405 nm in a Kontron 610 kinetic spectrofotometer. Measuring maximal rate, the assays were performed at 25° C. using 20 mM NaH2 PO4.H2 O at pH 7.5 with 20 mM NIPAB and 100 μl enzym solution (at a proper dilution). Initial rate measurements were performed with varying concentration of NIPAB.
Initial rate measurements were performed with excess substrate over the enzyme. Catalytic parameters were derived from least-squares fitting of the measured initial rates plotted for various substrate concentrations according to the Michaelis-Menten equation.
The complete conversion of NIPAB was followed as a funtion of time at 20, 50 and 100 μM NIPAB by following the increase in absorbtion at 405 nm. Products of this conversion are phenylacetic acid and 3-amino-6-nitrobenzoic acid. The conversion was performed at 25° C. in 0.1 M NaH2 PO4.H2 O buffer pH 7.5. The progress curves of the deacylation of NIPAB could be fitted very well when product inhibition by phenylacetic acid was taken into account. […]

## O=C(O)Cc1ccccc1 [phenylacetic acid]
[1]
  Ki: 115 µM
[2]
  Ki: 252 µM
